Assay results reported in patent US20250340563A1, “FUSED PYRIDAZINE DERIVATIVES AS NLRP3 INHIBITORS” (Takeda Pharmaceutical Company Limited, priority 2022, published 2025).

How the values were obtained:
NF-κB pathway = assay: TNF-α assay in IFN-γ-differentiated, LPS-stimulated THP-1 cells (ELISA); format: cell-based; settings: Homo sapiens, 50 ng/mL LPS, 3 hours
Protocol: Monocytic THP-1 cells (ATCC: TIB-202) are maintained in accordance with the provider's instructions in RPMI media (Life Technologies, Cat #A10491-01); RPMI is supplemented with 10% heat inactivated fetal bovine serum (Hyclone Cat #SH30396.03). The cells are differentiated into macrophages by the addition of 25 ng/mL IFN-γ for 24 hours at 37° C./5% CO2. Media is exchanged with fresh media with no FBS. The cells are plated at 40,000 cells per well in 384-well flat-bottom cell culture plates (Costar 3764) containing compounds (added in 1:1000) in a 1:3.16 serial dilution series in DMSO and are incubated for 30 minutes at 37° C./5% CO2. The NF-κB pathway is activated with the addition of 50 ng/mL LPS and the cells are incubated for 3 hours at 37° C./5% CO2. At the end of the incubation period, supernatant (40 μL) is removed, and […] are monitored using an ELISA (Human TNF-α ELISA, R&D systems, Cat #DY210) according to the manufacturer's instructions.
The IC50 values are calculated from a plot of percentage of inhibition versus the inhibitor concentration by a logistics curve fit according to: Y=[Bottom+(Top−Bottom)]/(1+10^[(Log IC50−X)·Hill Slope], where Y is the % inhibition at the inhibitor concentration, X, “Bottom” is the lowest inhibition value, i.e. 0%, “Top” is the maximum inhibition value, i.e. 100%, and the “Hill Slope” describes the slope of the sigmoidal curve between the “Bottom” and “Top” values. The curve fitting was conducted with internally developed software.

NLRP3 inflammasome = NLRP3 inflammasome (Homo sapiens, UniProt Q96P20); assay: IL-1β assay in IFN-γ-differentiated, LPS-primed, ATP-activated THP-1 cells (ELISA); format: cell-based; settings: 50 ng/mL LPS priming, 2.5 mM ATP activation, 2 hours
Summary of the method: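 THP-1 cells differentiated with 25 ng/mL IFN-γ for 24 h, then primed with 50 ng/mL LPS for 24 h in serum-free medium. After 30 min compound preincubation (1:3.16 dilution series), inflammasome activated with 2.5 mM ATP for 2 h at 37 °C. Supernatant IL-1β measured by ELISA; IC50 from logistic fit of % inhibition.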

Sequence of NLRP3 inflammasome (Q96P20 whole entry): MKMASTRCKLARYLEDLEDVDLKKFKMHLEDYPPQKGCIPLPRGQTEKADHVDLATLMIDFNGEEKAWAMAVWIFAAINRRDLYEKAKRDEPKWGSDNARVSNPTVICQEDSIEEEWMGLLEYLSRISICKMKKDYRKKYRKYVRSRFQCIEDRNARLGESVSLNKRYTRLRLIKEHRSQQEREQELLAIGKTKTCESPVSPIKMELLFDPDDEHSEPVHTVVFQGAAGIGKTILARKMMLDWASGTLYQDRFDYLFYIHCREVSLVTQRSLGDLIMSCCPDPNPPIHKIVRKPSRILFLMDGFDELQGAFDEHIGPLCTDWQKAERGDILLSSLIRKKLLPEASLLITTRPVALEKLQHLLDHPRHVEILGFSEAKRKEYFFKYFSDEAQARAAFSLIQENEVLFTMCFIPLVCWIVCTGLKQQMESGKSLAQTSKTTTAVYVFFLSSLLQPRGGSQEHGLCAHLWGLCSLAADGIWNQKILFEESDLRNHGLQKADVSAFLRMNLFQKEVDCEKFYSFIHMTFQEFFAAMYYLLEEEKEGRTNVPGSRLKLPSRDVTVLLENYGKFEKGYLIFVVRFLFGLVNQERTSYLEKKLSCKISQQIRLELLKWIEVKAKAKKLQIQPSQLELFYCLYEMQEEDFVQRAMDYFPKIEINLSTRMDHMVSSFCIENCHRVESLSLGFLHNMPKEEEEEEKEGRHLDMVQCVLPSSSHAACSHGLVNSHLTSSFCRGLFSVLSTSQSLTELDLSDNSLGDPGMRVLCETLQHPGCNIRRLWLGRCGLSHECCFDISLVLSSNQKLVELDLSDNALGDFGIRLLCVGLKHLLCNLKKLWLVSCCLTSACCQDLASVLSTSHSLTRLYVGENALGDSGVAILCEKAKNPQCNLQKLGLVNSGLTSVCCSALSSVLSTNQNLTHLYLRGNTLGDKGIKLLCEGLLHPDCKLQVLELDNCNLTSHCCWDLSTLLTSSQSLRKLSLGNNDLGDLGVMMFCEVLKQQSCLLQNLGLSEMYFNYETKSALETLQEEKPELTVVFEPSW

| SMILES | IC50 (NF-κB pathway) | IC50 (NLRP3 inflammasome) |
| --- | --- | --- |
| CN1CC2CC2(Nc2nnc(-c3ccc(Cl)cc3)c3ccccc23)C1 (stereo not shown) [Example 152, 4-(4-chlorophenyl)-N-(3-methyl-3-azabicyclo[3.1.0]hexan-1-yl)phthalazin-1-amine] | > 30 µM | 0.49 µM |
| Clc1ccc(-c2nnc(Nc3ccccc3)c3ccccc23)cc1 [Example 153, 4-(4-chlorophenyl)-N-phenylphthalazin-1-amine] | > 30 µM | 2.26 µM |
| Clc1ccc(-c2nnc(NC3CCCN(Cc4ccccc4)C3)c3ccccc23)cc1 (stereo not shown) [Example 155, N-(1-benzylpiperidin-3-yl)-4-(4-chlorophenyl)phthalazin-1-amine] | 23.4 µM | 0.066 µM |
| CCN1CCCC(Nc2nnc(-c3ccc(Cl)cc3)c3ccccc23)C1 (stereo not shown) [Example 162, 4-(4-chlorophenyl)-N-(1-ethylpiperidin-3-yl)phthalazin-1-amine] | > 30 µM | 0.018 µM |
| COc1ccc(-c2nnc(N[C@@H]3CCCN(C4(C)CC4)C3)c3cnccc23)cc1 [Example 168, (R)-1-(4-methoxyphenyl)-N-(1-(1-methylcyclopropyl)piperidin-3-yl)pyrido[3,4-d]pyridazin-4-amine] | > 30 µM | 0.005 µM |
| COc1ccc(-c2nnc(N[C@@H]3CCCN(C4CC4)C3)c3cnccc23)cc1 [Example 169, (R)—N-(1-cyclopropylpiperidin-3-yl)-1-(4-methoxyphenyl)pyrido[3,4-d]pyridazin-4-amine] | > 30 µM | 0.007 µM |
| CCN1CCCC(Nc2nnc(-c3ccc(OC)cc3)c3ccccc23)C1 (stereo not shown) [Example 171, N-(1-ethylpiperidin-3-yl)-4-(4-methoxyphenyl)phthalazin-1-amine] | > 30 µM | 0.068 µM |
| COc1ccc(-c2nnc(N[C@@H]3C[C@@H](F)CN(C)C3)c3cnccc23)cc1 [Example 174, N-((3R,5R)-5-fluoro-1-methylpiperidin-3-yl)-1-(4-methoxyphenyl)pyrido[3,4-d]pyridazin-4-amine] | > 30 µM | 0.159 µM |
| CN1C[C@H](F)C[C@@H](Nc2nnc(-c3ccc(Cl)cc3F)c3ccccc23)C1 [Example 176, 4-(4-chloro-2-fluorophenyl)-N-((3R,5R)-5-fluoro-1-methylpiperidin-3-yl)phthalazin-1-amine] | > 30 µM | 0.037 µM |
| COc1ccc(-c2nnc(N[C@@H]3C[C@@H](F)CN(C)C3)c3ccccc23)cc1 [Example 177, N-((3R,5R)-5-fluoro-1-methylpiperidin-3-yl)-4-(4-methoxyphenyl)phthalazin-1-amine] | > 30 µM | 0.053 µM |
| COc1ccc(-c2nnc(N[C@@H]3C[C@@H](F)CN(C)C3)c3ccccc23)c(F)c1 [Example 178, N-((3R,5R)-5-fluoro-1-methylpiperidin-3-yl)-4-(2-fluoro-4-methoxyphenyl)phthalazin-1-amine] | > 30 µM | 0.081 µM |
| CN1C[C@H](F)C[C@@H](Nc2nnc(-c3ccc(Cl)cc3F)c3ccncc23)C1 [Example 184, 1-(4-chloro-2-fluorophenyl)-N-((3R,5R)-5-fluoro-1-methylpiperidin-3-yl)pyrido[3,4-d]pyridazin-4-amine] | > 30 µM | 0.152 µM |
| CN1C[C@@H](F)C[C@@H](Nc2nnc(-c3ccc(Cl)cc3)c3ccccc23)C1 [Example 185, 4-(4-chlorophenyl)-N-((3R,5S)-5-fluoro-1-methylpiperidin-3-yl)phthalazin-1-amine] | > 30 µM | 0.311 µM |
| Cc1ccc(-c2nnc(N[C@@H]3C[C@@H](F)CN(C)C3)c3c(C)nccc23)c(O)c1 [Example 186, 2-(4-(((3R,5R)-5-fluoro-1-methylpiperidin-3-yl)amino)-5-methylpyrido[3,4-d]pyridazin-1-yl)-5-methylphenol] | > 30 µM | 0.005 µM |
| CN1C[C@H](F)C[C@@H](Nc2nnc(-c3ccc(Cl)cc3)c3ccncc23)C1 [Example 189, 1-(4-chlorophenyl)-N-((3R,5R)-5-fluoro-1-methylpiperidin-3-yl)pyrido[3,4-d]pyridazin-4-amine] | > 30 µM | 0.11 µM |
| F[C@H]1CNC[C@H](Nc2nnc(-c3ccc(Cl)cc3)c3ccccc23)C1 [Example 190, 4-(4-chlorophenyl)-N-((3R,5R)-5-fluoropiperidin-3-yl)phthalazin-1-amine] | 7.59 µM | 0.648 µM |
| CN1C[C@H](F)C[C@@H](Nc2nnc(-c3ccc(Cl)cc3)c3ccccc23)C1 [Example 192, 4-(4-chlorophenyl)-N-((3R,5R)-5-fluoro-1-methylpiperidin-3-yl)phthalazin-1-amine] | > 30 µM | 0.06 µM |
| CCN1C[C@H](F)C[C@@H](Nc2nnc(-c3ccc(OC)cc3)c3ccccc23)C1 [Example 193, N-((3R,5R)-1-ethyl-5-fluoropiperidin-3-yl)-4-(4-methoxyphenyl)phthalazin-1-amine] | > 30 µM | 0.022 µM |
| COc1ccc(-c2nnc(N[C@@H]3C[C@@H](F)CN(CC4CC4)C3)c3ccccc23)cc1 [Example 194, N-((3R,5R)-1-(cyclopropylmethyl)-5-fluoropiperidin-3-yl)-4-(4-methoxyphenyl)phthalazin-1-amine] | > 30 µM | 0.035 µM |
| CCN1C[C@H](F)C[C@@H](Nc2nnc(-c3ccc(OC)cc3)c3ccncc23)C1 [Example 195, N-((3R,5R)-1-ethyl-5-fluoropiperidin-3-yl)-1-(4-methoxyphenyl)pyrido[3,4-d]pyridazin-4-amine] | > 30 µM | 0.113 µM |
| COc1ccc(-c2nnc(N[C@@H]3C[C@@H](F)CN(C(C)C)C3)c3ccccc23)cc1 [Example 196, N-((3R,5R)-5-fluoro-1-isopropylpiperidin-3-yl)-4-(4-methoxyphenyl)phthalazin-1-amine] | > 30 µM | 0.012 µM |
| CN1C[C@H](F)C[C@@H](Nc2nnc(-c3ccc(Cl)cc3O)c3c2CCOC3)C1 [Example 200, 5-chloro-2-(1-(((3R,5R)-5-fluoro-1-methylpiperidin-3-yl)amino)-7,8-dihydro-5H-pyrano[3,4-d]pyridazin-4-yl)phenol] | > 30 µM | 0.003 µM |
| CN1C[C@H](F)C[C@@H](Nc2nnc(-c3ccc(F)cc3O)c3c2CCOC3)C1 [Example 203, 5-fluoro-2-(1-(((3R,5R)-5-fluoro-1-methylpiperidin-3-yl)amino)-7,8-dihydro-5H-pyrano[3,4-d]pyridazin-4-yl)phenol] | > 30 µM | 0.032 µM |
| CN1C[C@H](F)C[C@@H](Nc2nnc(-c3ccc(OC(F)(F)F)cc3F)c3c2COCC3)C1 [Example 205, N-((3R,5R)-5-fluoro-1-methylpiperidin-3-yl)-1-(2-fluoro-4-(trifluoromethoxy)phenyl)-7,8-dihydro-5H-pyrano[3,4-d]pyridazin-4-amine] | > 30 µM | 0.064 µM |
| COc1ccc(-c2nnc(N[C@@H]3C[C@@H](F)CN(C)C3)c3c2CCOC3)c(C(F)F)c1 [Example 206, 1-(2-(difluoromethyl)-4-methoxyphenyl)-N-((3R,5R)-5-fluoro-1-methylpiperidin-3-yl)-7,8-dihydro-5H-pyrano[3,4-d]pyridazin-4-amine] | > 30 µM | 0.425 µM |
| COc1ccc(-c2nnc(N[C@@H]3C[C@@H](F)CN(C)C3)c3c2COCC3)c(C(F)F)c1 [Example 208, 4-(2-(difluoromethyl)-4-methoxyphenyl)-N-((3R,5R)-5-fluoro-1-methylpiperidin-3-yl)-7,8-dihydro-5H-pyrano[3,4-d]pyridazin-1-amine] | > 30 µM | 0.853 µM |
| COc1ccc(-c2nnc(N[C@@H]3C[C@@H](F)CN(C)C3)c3c2COCC3)c(F)c1 [Example 209, N-((3R,5R)-5-fluoro-1-methylpiperidin-3-yl)-4-(2-fluoro-4-methoxyphenyl)-7,8-dihydro-5H-pyrano[3,4-d]pyridazin-1-amine] | > 30 µM | 1.05 µM |
| COc1ccc(-c2nnc(N[C@@H]3C[C@@H](F)CN(C)C3)c3c2COCC3)c(C(F)(F)F)c1 [Example 210, N-((3R,5R)-5-fluoro-1-methylpiperidin-3-yl)-4-(4-methoxy-2-(trifluoromethyl)phenyl)-7,8-dihydro-5H-pyrano[3,4-d]pyridazin-1-amine] | > 30 µM | 0.757 µM |
| CN1C[C@H](F)C[C@@H](Nc2nnc(-c3ccc(Cl)cc3F)c3c2CCOC3)C1 [Example 211, 4-(4-chloro-2-fluorophenyl)-N-((3R,5R)-5-fluoro-1-methylpiperidin-3-yl)-7,8-dihydro-5H-pyrano[3,4-d]pyridazin-1-amine] | > 30 µM | 1.15 µM |
